Values of other authors, collected in US20240238194A1, “ORODISPERSIBLE EFFERVESCENT TABLET COMPRISING BUDESONIDE FOR USE IN THE TREATMENT OF EOSINOPHILIC ESOPHAGITIS” (Dr. Falk Pharma GmbH, priority 2021, published 2024).

Conditions: in vivo

## budesonide [OVB]
  mucosal medication contact time, measured by scintigraphy: higher
